Results published in patent US5446152A, “Heterocyclic compounds active in gastro-intestinal pathologies” (priority 1993, dated 1995).
Structures can show the parent of a compound that is named as a salt. Where two headings read alike, the source gives them in different places.

Assays:
Sprague-Dawley rats = experiment: Study of acute toxicity (LD50); format: in vivo; details: Sprague-Dawley rats of both sexes, i.v., observation period of 14 days; 20160 min
Protocol: (§1) The acute toxicity (LD50)of the derivatives described in this invention was evaluated according to the method reported by Lietchfield J. T. and Wilcoxon F. in J. Pharmacol. Exp. Ther. 96, 99, 1949, on Sprague-Dawley rats of both sexes, over an observation period of 14 days from the day of treatment.

rabbit jejunum = experiment: Spontaneous peristaltic activity on rabbit jejunum; details: for Emax / EC50 / EC (maximum effect): Oryctolagus cuniculus; for Emax: read-out: maximum effect % (max. increase of extent of the contractions); for EC50: read-out: CE50 (concentration able to produce 50% of the maximum effect); for EC (maximum effect): read-out: concentration required to obtain the maximum effect
Protocol: (§2) In vitro tests were carried out to evaluate the effect of the compounds of formula I and some of their pharmacologically acceptable salts on physiological peristalsis, on the action of the histamine, serotonine and acetylcholine.
The action on physiological peristalsis was evaluated on an isolated rabbit jejunum preparation, according to the method reported by Magnus J. in Pfluegers Arch. Gen. Physiol.
The rabbit jejunum was used to evaluate the extent of the spontaneous peristaltic contractions in the presence and in the absence of the derivatives being studied.

[1] = test system: serotonine on the fornix of the rat stomach; experiment: Influence on the serotonine activity on the fornix of the rat stomach; design: species or system Wistar rat
Protocol: as §2
The effect on the serotonine was evaluated on the fornix of the stomach of a rat according to the method of Vane J. R. in Br. J. Pharmacol. Cheroother. 12, 344, 1957.
The action on the serotonine was evaluated on the fornix of the stomach of rat, also taken from Wistar rat sacrificed after 24 hours fasting, following the technique reported by Vane J. R. in Br. J. Pharmacol. Chemoter. 12, 344, 1957, as previously described.

[2] = Study of acute toxicity (LD50); format: in vivo; details: rat, in vivo, iv; Sprague-Dawley rats of both sexes, observation period of 14 days
Protocol: as §1

[3] = test system: acetylcholine on the rat ascending colon; experiment: Influence on the acetylcholine activity on the rat ascending colon; design: species or system Wistar rat; details: isolated rat ascending colon
Protocol: as §2
Finally the effect on the acetylcholine was evaluated on the ascending colon of a rat, according to the method of Gaddum J. H. and Horton E. W. reported in Br. J. Pharmacol. Chemother. 14, 117, 1959.
The effect of the products on the contracturing action of the acetylcholine was studied on the isolated ascending colon of rat, taken from Wistar rat sacrificed after 24 hours fasting, washed with De Jalon fluid at 27° C. and perfused with the same oxygenated fluid (95% oxygen and 5% carbon dioxide) at the temperature of 27° C. In this case too the cumulative dose-response curves were recorded in the presence of increasing concentrations of the products being studied.

[4] = test system: histamine on guinea-pig ileum; experiment: Influence on the activity of histamine on guinea-pig ileum; details: isolated guinea-pig ileum
Protocol: In vitro tests were carried out to evaluate the effect of the compounds of formula I and some of their pharmacologically acceptable salts on physiological peristalsis, on the action of the histamine, serotonine and acetylcholine. The effect on the histamine was evaluated on a preparation of guinea-pig ileum according to the method described by the above-mentioned authors. […] The rabbit jejunum was used to evaluate the extent of the spontaneous peristaltic contractions in the presence and in the absence of the derivatives being studied. On the guinea-pig ileum the cumulative dose-response curve to histamine were recorded in the presence of increasing concentrations of the products being examined.

intestinal transit = experiment: Intestinal transit of an opaque meal in the mouse (prokinetic action); format: in vivo, Swiss albino mice; details: for % of intestine (from pylorus to anus) travelled by the opaque meal / change in vivo at 0.0098 mg/kg: 9.8 μg/Kg p.o.; for % of intestine (from pylorus to anus) travelled by the opaque meal / change in vivo at 0.0098 mg/kg / ED50: 15' before the opaque meal; for change in vivo at 0.0098 mg/kg: Mus musculus, read-out: variation in % with respect to the controls; for change in vivo at 0.0098 mg/kg / ED50: po; for change in vivo at 0.0098 mg/kg / Variation % with respect to the controls: * = p<0.05; for Variation % with respect to the controls / ED50: mouse; for Variation % with respect to the controls: dose five times greater than ED50; for ED50: read-out: DE50 (the source's name)
Protocol: (§3) In tables 5, 6, 7 and 8 the significance was determined by means of Student's test on absolute values with respect to the relative controls using 10 animals per group in tests 5, 6 and 7.
The prokinetic action was evaluated in vivo on Swiss albino mice determining the influence of the products on the intestinal transit of an opaque meal, according to the method described by Macht D. I. and Barba-Gose J. in J. Amer. Pharm. Ass. 20, 558, 1931 and later by Witkin L. B. et al. in J. Pharmacol. Exp. Ther. […]
The method involved the administration of an opaque meal to the mice after a 24 hour fast, through gastric probe, 15 minutes after the administration of the product.
After sacrificing the animals 20 minutes after the administration of the opaque meal, the percentage of the length of the intestine travelled by the opaque meal was calculated.

[5] = test system: emesis induced with cisplatin; experiment: Test of vomit from cisplatin in the pigeon (antiemetic activity); format: in vivo; details: one hour before cisplatin 7.5 mg/kg; for Acts of vomit (average/anim.) / Animals that vomit % / Latency of 1st act of vomit: * = p<0.05
Protocol: as §3
Finally the antiemetic activity was evaluated in the pigeon after induction of emesis with cisplatin, according to the method of Preziosi P. et al. in Eur. J. Pharmacol. 221, 343, 1992.

gastric dumping = experiment: Test of gastric dumping in the rat; format: in vivo; details: for Increase % of the gastric dumping with respect to the controls: 30' before, measured 20' after the coloured meal, * = p<0.05
Protocol: as §3
Within the gastro-duodenal tract, the prokinetic activity was evaluated by means of the test of gastric dumping in the rat, according to the method reported by Scarpignato C. in J. Pharmacol. 14, 261, 1983.

cholinesterase = details: cited from earlier work
[6] = test system: dopaminergic receptors D2; details: cited from earlier work
[7] = test system: gastro-intestinal motility; details: cited from earlier work
behaviour = experiment: Irwin's test (effects as regards behaviour); format: in vivo; details: rats, 20 mg/Kg i.p.
Source text: Finally, preliminary studies on the effects as regards behaviour have been performed by means of Irwin's test, according to the method reported by Irwin S. in Gordon Res. Conf. on Medicinal Chem. 1959, 133, 1959, modified in that rats were used instead of mice.

[8] = isolated rabbit jejunum, spontaneous peristaltic contractions

In the case of `CCN(CC)CCN1CN(C)c2ccc(Cl)cc2C1=O` [Example 11, 6-Chloro-3-[2-(diethylamino)ethyl]-2,3-dihydro-1-methyl-4(1H)-quinazolinonecitrate], the LD50 (Sprague-Dawley rats) is reported as 80 mg/Kg/i.v.
Compound `CCN(CC)CCN1CNc2ccc(Cl)cc2C1=O.O=C(O)C(=O)O` [Example 1, 6-Chloro-3-[2-(diethylamino)ethyl]-2,3-dihydro-4(1H)-quinazolinone oxalate] has an Emax (rabbit jejunum; [8]) of 75%, an EC50 (rabbit jejunum; isolated rabbit jejunum) of 3000 nM and an EC (maximum effect) (rabbit jejunum; isolated rabbit jejunum) of 10 µM. The “effect on the spontaneous peristalsis in comparison with cisapride” value (rabbit jejunum; rabbit jejunum, examples 1 and 2 at greater concentrations than the reference, example 6 at identical concentrations) was “greater than that of cisapride”, the “active concentration (serotonine)” value [1] was 10 µM and the “effect on the serotonine activity” value ([1]; oxalate) was “increase the effect of the serotonine”. The LD50 at 336 h [2] was 100 mg/kg, the “active concentration (acetylcholine)” value [3] was 100 µM and the “active concentration (histamine)” value [4] was 100 µM. The “% of intestine (from pylorus to anus) travelled by the opaque meal” value (intestinal transit) was 52.0%, the change in vivo at 0.0098 mg/kg (intestinal transit) was 34.4% and the “Variation % with respect to the controls” value (intestinal transit) was 33.7%. For the same compound, the ED50 (intestinal transit) was 0.0098 mg/kg, the “Variation % of the time of latency with respect to the controls” value ([5]; 50.0 μg/kg i.m.) was -8.3% and the “Acts of vomit (average/anim.)” value ([5]; 50.0 μg/kg i.m.) was 5.0 average/anim. For the same compound, the “Animals that vomit %” value ([5]; 50.0 μg/kg i.m.) was 100.0%, the “Latency of 1st act of vomit” value ([5]; 50.0 μg/kg i.m.) was 77.5 min and the “Variation % of the time of latency with respect to the controls” value ([5]; 100.0 μg/kg i.m.) was “+14.7%”. The “Acts of vomit (average/anim.)” value ([5]; 100.0 μg/kg i.m.) was 4.0 average/anim, the “Animals that vomit %” value ([5]; 100.0 μg/kg i.m.) was 100.0% and the “Latency of 1st act of vomit” value ([5]; 100.0 μg/kg i.m.) was 97.0 min. For the same compound, the “Increase % of the gastric dumping with respect to the controls” value (“Increase % of the gastric dumping” for short) (gastric dumping; 12.5 μg/kg) was 27.6%, the “Increase % of the gastric dumping” value (gastric dumping; 50.0 μg/kg) was 81.0% and the “Increase % of the gastric dumping” value (gastric dumping; 100.0 μg/kg) was 40.0%. For the same compound, the “Increase % of the gastric dumping” value (gastric dumping; 200.0 μg/kg) was 45.7%, the “Increase % of the gastric dumping” value (gastric dumping; 400.0 μg/kg) was 34.0% and the “level of activity on the gastric dumping” value (gastric dumping; rat, text statement on table 7) was “high level of activity on the gastric dumping”.
For `COc1cc(N)c(Cl)cc1C(=O)NC1CCN(CCCOc2ccc(F)cc2)CC1OC` (centres unmarked) [cisapride, reference compound], the Emax (rabbit jejunum) is listed as 40%, the EC50 (rabbit jejunum; isolated rabbit jejunum) is listed as 20 nM and the cholinesterase inhibition (cholinesterase) is listed as “practically no”. For the same compound, the LD50 at 336 h [2] was 35 mg/kg and the ED50 (intestinal transit) was 0.019 mg/kg.
For `CCN(CC)CCNC(=O)c1cc(Cl)c(N)cc1OC` [metoclopramide], the “activity on the dopaminergic receptors D2” value [6] is listed as “both central and peripheral antagonistic activity on the dopaminergic receptors D2” and the “gastro-intestinal motility / prokinetic activity” value [7] is listed as “stimulates the motility of the upper gastro-intestinal tract”.
In the case of `COc1cc(N)c(Cl)cc1C(=O)NC1CCN(Cc2ccccc2)CC1` [clebopride], the “activity on the dopaminergic receptors D2” value [6] is listed as “a fair amount of activity on the dopaminergic receptors D2” and the “gastro-intestinal motility / prokinetic activity” value [7] is listed as “having prokinetic activity”.
`CCN(CC)CCCN1CNc2ccc(Cl)cc2C1=O` [Example 3, 6-Chloro-3-3-(diethylamino)propyl-2,3-dihydro-4(1H)-quinazolinone oxalate] showed an Emax (rabbit jejunum; [8]) of 25%, an EC50 (rabbit jejunum; isolated rabbit jejunum) of 10 nM and an EC (maximum effect) (rabbit jejunum; isolated rabbit jejunum) of 1 µM. The “effect on the serotonine activity” value [1] was “act as competitive antagonists”, the “variations with respect to the controls in behavioural parameters (Irwin's test)” value (behaviour) was “no significant variations with respect to the controls” and the “% of intestine (from pylorus to anus) travelled by the opaque meal” value (intestinal transit) was 45.0%. The change in vivo at 0.0098 mg/kg (intestinal transit) was 11.1% and the “Variation % with respect to the controls” value (intestinal transit) was 6.4%.
For `CCN1CC(NC(=O)c2cc(Cl)c(N)cc2OC)CN1CC` [dazopride], the “activity on the dopaminergic receptors D2” value [6] is listed as “a fair amount of activity on the dopaminergic receptors D2” and the “gastro-intestinal motility / prokinetic activity” value [7] is listed as “having prokinetic activity”.
